Reference: patent publication US8945864B2, “Method of determining 1,5-anhydroglucitol, and reagent composition for determining 1,5-anhydroglucitol” (Ikeda Food Research Co., Ltd., priority 2006, dated 2015)
Read-outs that look alike come from different tables or passages of the source.

What was measured:
[1] = target: T1, sorbose dehydrogenase (Sinorhizobium meliloti, UniProt Q92YU0); test: Inhibitor test: additive in the reaction solution for the activity measurement; format: biochemical, Sinorhizobium sp. 97507; settings: for activity at 1000 µM: read-out: Relative activity (%)
[2] = target: T1, sorbose dehydrogenase; test: Substrate specificity of sorbose dehydrogenase (relative reactivity, DCIP method); format: biochemical, Sinorhizobium sp. 97507
Description: One mL of a 0.1 M potassium phosphate buffer, pH 7.0, 1.0 mL of 1.0 M L-sorbose, 0.14 mL of 3 mM 2,6-dichlorophenol indophenol (DCIP), 0.2 mL of 3 mM 1-methoxy-5-methylphenazinium methyl sulfate, and 0.61 mL of water were added to a 3 mL quartz cell, and the quartz cell was set to a spectrophotometer equipped with a thermostat cell holder, and incubated at 37° C. for ten minutes. Then, 0.05 mL of the enzyme solution was added to the quartz cell, and changes in absorbance of DCIP at 600 nm (AABS600/min) was measured at 37° C. As the molar extinction coefficient of DCIP at pH 7.0 is known as 16.3 mM^−1, and the amount of enzyme that reduced 1 μmol of DCIP for one minute is defined as one unit. Following the definition, the concentration of enzyme activity was calculated based on the following equation. enzyme activity (units/mL)=(−ΔABS600/min×3.0×dilution rate)/(16.3×1.0×0.05)
Measurement conditions in the above “method of measuring enzyme activity” were suitably modified as necessary, and the optimal pH, pH stability, optimal temperature, temperature stability, substrate specificity, Km value, total molecular weight, subunit molecular weight, inhibitor, and product of the enzyme reaction were identified. The properties of the enzyme were evaluated in accordance with the following tests.
[…]. The results are shown as a relative value of each substrate with reference to the value of activity of L-sorbose as a standard.

[3] = additive final concentration 1.0 mM, control without additive = 100%
[4] = substrate 333 mM (lactose 167 mM)
[5] = substrate final concentration 333 mM, relative to activity of L-sorbose as standard (100)
[6] = substrate final concentration 333 mM, […]

T1 sequence (Q92YU0 entry or part of it): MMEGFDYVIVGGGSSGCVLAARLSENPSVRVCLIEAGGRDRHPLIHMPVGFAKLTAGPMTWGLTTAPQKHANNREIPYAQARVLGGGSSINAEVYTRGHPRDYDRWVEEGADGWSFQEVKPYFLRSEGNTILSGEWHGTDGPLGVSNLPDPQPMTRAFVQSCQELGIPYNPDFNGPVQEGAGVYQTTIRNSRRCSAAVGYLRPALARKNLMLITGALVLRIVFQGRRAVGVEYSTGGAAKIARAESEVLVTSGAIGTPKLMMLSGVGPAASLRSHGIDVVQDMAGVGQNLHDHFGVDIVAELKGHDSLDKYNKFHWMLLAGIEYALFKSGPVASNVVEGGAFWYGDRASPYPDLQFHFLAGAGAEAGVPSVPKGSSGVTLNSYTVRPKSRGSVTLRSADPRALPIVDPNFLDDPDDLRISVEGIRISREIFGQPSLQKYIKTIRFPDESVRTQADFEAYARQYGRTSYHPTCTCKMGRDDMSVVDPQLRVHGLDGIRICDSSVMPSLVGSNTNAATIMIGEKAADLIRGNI

## 2-(p-)nitrobenzoic acid
[1]; [3]
  Relative activity (%): 75%

## O=C(O)CC(O)C(=O)O (racemic) [DL-malic acid]
[1]; [3]
  Relative activity (%): 85%

## O=C(O)C(O)C(O)C(=O)O (racemic) [DL-tartaric acid]
[1]; [3]
  Relative activity (%): 86%

## OC[C@H]1OC[C@H](O)[C@@H](O)[C@@H]1O [1,5-anhydroglucitol]
[2]; [4]
  Effect of the sorbose dehydrogenase on the substrate (in words): strong effect
[2]; [5]
  Relative activity (%): 79.1%

## c1cnc2c(c1)ccc1cccnc12 [1,10-phenanthroline]
[1]; [3]
  activity at 1000 µM: 77%

## CCCCO [1-butanol]
[2]
  Effect of the sorbose dehydrogenase on the substrate (in words): weak effect
  Relative activity (%): 1.29%

## CCCO [1-propanol]
[2]; [4]
  Effect of the sorbose dehydrogenase on the substrate (in words): little effect
[2]; [5]
  Relative activity (%): 0.75%

## c1ccc(-c2ccccn2)nc1 [2,2′-bipyridine]
[1]; [3]
  activity at 1000 µM: 88%

## CC(O)C(C)O (stereo not shown) [2,3-butanediol]
[2]
  Effect of the sorbose dehydrogenase on the substrate (in words): little effect
  Relative activity (%): 0.26%

## CCC(C)O (stereo not shown) [2-butanol]
[2]
  Effect of the sorbose dehydrogenase on the substrate (in words): little effect

## CC(C)CO [2-methyl-1-propanol]
[2]; [4]
  Effect of the sorbose dehydrogenase on the substrate (in words): weak effect
[2]; [5]
  Relative activity (%): 2.06%

## CCCC(C)O (stereo not shown) [2-pentanol]
[2]; [4]
  Effect of the sorbose dehydrogenase on the substrate (in words): little effect

## CC(C)O [2-propanol]
[2]; [4]
  Effect of the sorbose dehydrogenase on the substrate (in words): little effect
[2]; [5]
  Relative activity (%): 0.39%

## Oc1cccc2cccnc12 [8-quinolinol]
[1]
  Relative activity (%): 106%

## [Cl][Al]([Cl])[Cl] [AlCl3]
[1]; [3]
  Relative activity (%): 109%

## C=CCO [Allyl alcohol]
[2]; [4]
  Effect of the sorbose dehydrogenase on the substrate (in words): weak effect
[2]; [6]
  Relative activity (%): 3.80%

## NN=C(N)N.O=S(=O)(O)O [Aminoguanidine sulfate]
[1]
  Relative activity (%): 91%

## [Ba+2].[Cl-].[Cl-] [BaCl2]
[1]; [3]
  Relative activity (%): 80%

## O=C(O)c1ccccc1 [Benzoic acid]
[1]
  activity at 1000 µM: 101%

## [Ca+2].[Cl-].[Cl-] [CaCl2]
[1]
  Relative activity (%): 92%

## [Cl][Cd][Cl] [CdCl2]
[1]
  Relative activity (%): 91%

## O=C(O)CC(O)(CC(=O)O)C(=O)O [Citric acid]
[1]
  activity at 1000 µM: 86%

## [Cl][Cu][Cl] [CuCl2]
[1]; [3]
  Relative activity (%): 0%
[1]; heavy metal ions, 1 mM
  Inhibition of the sorbose dehydrogenase (in words): remarkably inhibited

## O=C[C@H](O)[C@@H](O)[C@@H](O)[C@H](O)CO [D-(+)-galactose]
[2]; [4]
  Effect of the sorbose dehydrogenase on the substrate (in words): weak effect
[2]; [6]
  Relative activity (%): 1.69%

## O=C[C@H](O)[C@@H](O)[C@H](O)[C@H](O)CO [D-(+)-glucose]
[2]; [4]
  Effect of the sorbose dehydrogenase on the substrate (in words): weak effect
[2]; [6]
  Relative activity (%): 1.22%

## O=C[C@@H](O)[C@@H](O)[C@H](O)[C@H](O)CO [D-(+)-mannose]
[2]; [4]
  Effect of the sorbose dehydrogenase on the substrate (in words): little effect
[2]; [6]
  Relative activity (%): 0.15%

## O=C(CO)[C@@H](O)[C@H](O)[C@H](O)CO [D-(−)-fructose]
[2]; [4]
  Effect of the sorbose dehydrogenase on the substrate (in words): little effect
[2]; [6]
  Relative activity (%): 0%

## O=C(CO)[C@H](O)[C@@H](O)[C@H](O)CO [D-(−)-sorbose]
[2]; [4]
  Effect of the sorbose dehydrogenase on the substrate (in words): weak effect
[2]; [6]
  Relative activity (%): 2.96%

## OC[C@H]1O[C@@H](O[C@H]2[C@H](O)[C@@H](O)[C@H](O)O[C@@H]2CO)[C@H](O)[C@@H](O)[C@@H]1O [D-cellobiose]
[2]; [4]
  Effect of the sorbose dehydrogenase on the substrate (in words): little effect

## N[C@@H]1CONC1=O [D-cycloserine]
[1]; [3]
  Relative activity (%): 90%

## OC[C@@H](O)[C@@H](O)[C@H](O)[C@H](O)CO [D-mannitol]
[2]; [4]
  Effect of the sorbose dehydrogenase on the substrate (in words): little effect

## OC[C@H]1O[C@H](OC[C@H]2O[C@H](O[C@]3(CO)O[C@H](CO)[C@@H](O)[C@@H]3O)[C@H](O)[C@@H](O)[C@@H]2O)[C@H](O)[C@@H](O)[C@H]1O [D-raffinose]
[2]; [4]
  Effect of the sorbose dehydrogenase on the substrate (in words): little effect

## O=C[C@H](O)[C@H](O)[C@H](O)CO [D-ribose]
[2]; [4]
  Effect of the sorbose dehydrogenase on the substrate (in words): little effect

## OC[C@@H](O)[C@@H](O)[C@H](O)[C@@H](O)CO [D-sorbitol]
[2]; [4]
  Effect of the sorbose dehydrogenase on the substrate (in words): little effect

## OC[C@H]1O[C@H](O[C@H]2O[C@H](CO)[C@@H](O)[C@H](O)[C@H]2O)[C@H](O)[C@@H](O)[C@@H]1O [D-trehalose]
[2]; [4]
  Effect of the sorbose dehydrogenase on the substrate (in words): little effect

## O=C[C@H](O)[C@@H](O)[C@H](O)CO [D-xylose]
[2]; [4]
  Effect of the sorbose dehydrogenase on the substrate (in words): little effect

## O=C([O-])CN(CCN(CC(=O)O)CC(=O)O)CC(=O)[O-].[Na+].[Na+] [EDTA-2Na]
[1]
  Relative activity (%): 102%

## CCO [Ethanol]
[2]
  Effect of the sorbose dehydrogenase on the substrate (in words): little effect
  Relative activity (%): 0%

## [Cl][Fe]([Cl])[Cl] [FeCl3]
[1]; [3]
  Relative activity (%): 89%

## O=C(O)/C=C/C(=O)O [Fumaric acid]
[1]
  activity at 1000 µM: 99%

## OCC(O)CO [Glycerol]
[2]; [4]
  Effect of the sorbose dehydrogenase on the substrate (in words): little effect
[2]; [6]
  Relative activity (%): 0%

## OO [H2O2]
[1]
  Relative activity (%): 98%

## [Cl][Hg][Cl] [HgCl2]
[1]; [3]
  Relative activity (%): 0%
[1]; heavy metal ions, 1 mM
  Inhibition of the sorbose dehydrogenase (in words): remarkably inhibited

## O=C(O)CI [Iodoacetic acid]
[1]
  activity at 1000 µM: 83%

## O=C[C@H](O)[C@@H](O)[C@@H](O)CO [L-arabinose]
[2]; [4]
  Effect of the sorbose dehydrogenase on the substrate (in words): little effect

## C[C@H](O)[C@H](O)[C@@H](O)[C@@H](O)C=O [L-rhamnose]
[2]; [4]
  Effect of the sorbose dehydrogenase on the substrate (in words): little effect

## OC[C@H]1O[C@@H](O[C@H]2[C@H](O)[C@@H](O)C(O)O[C@@H]2CO)[C@H](O)[C@@H](O)[C@H]1O (stereo partly shown) [Lactose]
[2]; [4]
  Effect of the sorbose dehydrogenase on the substrate (in words): little effect
[2]; substrate final concentration 167 mM (lactose), […]
  Relative activity (%): 0.71%

## [Cl-].[Li+] [LiCl]
[1]; [3]
  Relative activity (%): 98%

## O=C(O)/C=C\C(=O)O [Maleic acid]
[1]
  activity at 1000 µM: 82%

## OC[C@H]1O[C@H](O[C@H]2[C@H](O)[C@@H](O)[C@H](O)O[C@@H]2CO)[C@H](O)[C@@H](O)[C@@H]1O [Maltose]
[2]; [4]
  Effect of the sorbose dehydrogenase on the substrate (in words): little effect
[2]; [6]
  Relative activity (%): 0%

## [Cl-].[Cl-].[Mg+2] [MgCl2]
[1]
  Relative activity (%): 93%

## [Cl][Mn][Cl] [MnCl2]
[1]
  Inhibition of the sorbose dehydrogenase (in words): remarkably inhibited
  Relative activity (%): 11%

## CCN1C(=O)C=CC1=O [N-ethylmaleimide]
[1]; [3]
  activity at 1000 µM: 88%

## [Cl-].[Na+] [NaCl]
[1]
  Relative activity (%): 85%

## [N-]=[N+]=[N-].[Na+] [NaN3]
[1]
  Relative activity (%): 115%

## [Cl][Ni][Cl] [NiCl2]
[1]
  Relative activity (%): 80%

## OC[C@@H](O)[C@H](O)[C@@H](O)CO [Xylitol]
[2]; [4]
  Effect of the sorbose dehydrogenase on the substrate (in words): little effect
[2]; [5]
  Relative activity (%): 0.89%

## O[C@H]1[C@H](O)[C@@H](O)[C@H](O)[C@@H](O)[C@H]1O [inositol]
[2]; [4]
  Effect of the sorbose dehydrogenase on the substrate (in words): little effect

## OC[C@@H](O)[C@@H](O)CO [meso-erythritol]
[2]; [4]
  Effect of the sorbose dehydrogenase on the substrate (in words): little effect

## CO [methanol]
[2]
  Effect of the sorbose dehydrogenase on the substrate (in words): little effect

## CC(O)CO (stereo not shown) [propylene glycol]
[2]; [4]
  Effect of the sorbose dehydrogenase on the substrate (in words): little effect

## OC[C@H]1O[C@@](CO)(O[C@H]2O[C@H](CO)[C@@H](O)[C@H](O)[C@H]2O)[C@@H](O)[C@@H]1O [sucrose]
[2]; [4]
  Effect of the sorbose dehydrogenase on the substrate (in words): little effect
